Read-outs that look alike come from different tables or passages of the source.
How the values were obtained:
[1] = test system: intracellular glutathione in cultured cancer cells; assay: Cell imaging in cultured cancer cells by confocal microscope; format: cell-based; settings: for change in fluorescence intensity ratio in cells: NEM addition, FIGS. 8 and 9
Method: Next, cell imaging in cultured cancer cells was conducted using compound 1 (2Me SiR600) as a fluorescent probe. Measurement was conducted using a confocal microscope.
Fluorescence imaging in cultured cancer cells was conducted in the same way as in Example 4 using compound 8 (2Me SiR600-TMR) as the fluorescent probe (FIG. 8).

[2] = Fluorescence assay for glutathione: Kd from absorption/fluorescence change on glutathione addition; format: binding
Method: (§1) Glutathione was reacted with the fluorescent probe 2Me SiR600 (compound 1) synthesized in Example 1, and fluorescence assay was conducted. A Shimadzu UV-2450 (Shimadzu Corporation) and a Hitachi F-7000 (Hitachi, Ltd.) were used in ultraviolet-visible spectroscopy and fluorescence spectroscopy. A fluorescent probe was diluted to a final concentration of 1 μM in 0.2 M sodium phosphate buffer (pH 7.4), containing 0.1-1% DMSO. The absorption spectrum and fluorescence spectrum were measured when various concentration of glutathione was added in the range of 1 μM-100 mM. The excitation wavelength was 590 nm.

[3] = Ultraviolet-visible and fluorescence spectroscopy of the probes; format: physicochemical; settings: for Quantum yield: 0.2 M sodium phosphate buffer pH 7.4
Method: as §1

[4] = Table 1, dissociation constant for glutathione, calculated from changes in the fluorescence spectrum, pH 7.4, read-out: Kd
[5] = Table 1, 1 μM probe, 0.2 M sodium phosphate buffer pH 7.4, 0.1-1% DMSO
[6] = Table 2, dissociation constant for glutathione, same conditions as Example 2, read-out: Kd
[7] = Table 2, same conditions as Example 2

Row | SMILES | Kd [2, 4] [µM] | Absorption peak [nm] [3, 5] [nm] | Fluorescence peak [nm] [3, 5] [nm] | Quantum yield ([3]; Table 1) | Kd [2, 6] [µM] | Absorption peak [nm] [3, 7] [nm] | Fluorescence peak [nm] [3, 7] [nm] | Fluorescence quantum yield [3, 7] | other results
1 | Cc1ccccc1C1=C2C=CC(=N)C=C2[Si](C)(C)c2cc(N)ccc21 [Compound 1, 2Me SiR600] | 1100 | 593 | 613 | 0.38 | – | – | – | – | change in fluorescence intensity in cells ([1]; glutathione depletion due to N-ethylmaleimide (NEM) addition, FIG. 4): an increase in fluorescence intensity was found; Kd ([2]; from values at absorption peak wavelength (593 nm) against glutathione concentration, read-out: dissociation constant Kd): 1000 µM; Kd ([2]; from values at fluorescence peak wavelength (614 nm) against glutathione concentration, excitation 590 nm, read-out: dissociation constant Kd): 1100 µM
2 | CN(C)c1ccc2c(c1)[Si](C)(C)C1=CC(=[N+](C)C)C=CC1=C2c1ccccc1 [Compound 2, Ph SiR650] | 900 | 645 | 668 | 0.14 | – | – | – | – | –
3 | COc1ccccc1C1=C2C=CC(=[N+](C)C)C=C2[Si](C)(C)c2cc(N(C)C)ccc21 [Compound 3, 2OMe SiR650] | 41000 | 649 | 672 | 0.37 | – | – | – | – | –
4 | CN(C)c1ccc2c(c1)[Si](C)(C)C1=CC(=[N+](C)C)C=CC1=C2c1ccccc1O [Compound 4, 2OH SiR650] | 43000 | 648 | 672 | 0.31 | – | – | – | – | –
5 | CN(C)c1ccc2c(c1)[Si](C)(C)C1=CC(=[N+](C)C)C=CC1=C2c1ccccc1C#N [Compound 5, 2CN SiR650] | 1200 | 658 | 683 | 0.25 | – | – | – | – | –
6 | COc1ccccc1C1=c2cc3c(cc2[Si](C)(C)c2cc4c(cc21)OCCN4C)=[N+](C)CCO3 [Compound 6, 2OMe OxaSiR diMe] | 700 | 699 | 740 | 0.08 | – | – | – | – | –
7 | CN1CCOc2cc3c(cc21)[Si](C)(C)c1cc2c(cc1=C3c1ccccc1O)OCC[N+]=2C [Compound 7, 2OH OxaSiR diMe] | 900 | 699 | 739 | 0.07 | – | – | – | – | –
8 | Cc1cc(C(=O)NC2CCC(NC(=O)c3ccc(-c4c5ccc(=[N+](C)C)cc-5oc5cc(N(C)C)ccc45)c(C(=O)[O-])c3)CC2)ccc1C1=C2C=CC(=N)C=C2[Si](C)(C)c2cc(N)ccc21 (stereo not drawn) [Compound 8, 2Me SiR600-TMR] | – | – | – | – | – | – | – | – | change in fluorescence intensity ratio in cells [1]: change in fluorescence intensity ratio observed
9 | COC(=O)c1cc(C(=O)NC2CCC(NC(=O)c3ccc(C4=C5C=CC(=N)C=C5[Si](C)(C)c5cc(N)ccc54)c(C)c3)CC2)ccc1-c1c2ccc(=[N+](C)C)cc-2oc2cc(N(C)C)ccc12 (stereo not drawn) [Compound 9, 2Me SiR600-TMR(Me)] | – | – | – | – | – | – | – | – | change in fluorescence intensity ratio in cells [1]: change in fluorescence intensity ratio due to NEM addition was also observed
10 | CCc1ccccc1C1=C2C=CC(=N)C=C2[Si](C)(C)c2cc(N)ccc21.O=C(O)C(F)(F)F [Compound 11] | – | – | – | – | 2300 | 592 | 614 | 0.44 | –
11 | CN=C1C=CC2=C(c3ccccc3OC)c3ccc(NC)cc3[Si](C)(C)C2=C1.O=C(O)C(F)(F)F [Compound 16] | – | – | – | – | 16000 | 620 | 643 | 0.34 | –
12 | CN=C1C=CC2=C(c3ccccc3O)c3ccc(NC)cc3[Si](C)(C)C2=C1.O=C(O)C(F)(F)F [Compound 17] | – | – | – | – | 21000 | 620 | 643 | 0.22 | –
13 | CN(C)c1ccc2c(c1)[Si](C)(C)C1=CC(=[N+](C)C)C=CC1=C2c1ccccc1F [Compound 18] | – | – | – | – | 1300 | 655 | 677 | 0.19 | –
14 | CN(C)c1ccc2c(c1)[Si](C)(C)C1=CC(=[N+](C)C)C=CC1=C2c1cccc(C(F)(F)F)c1 [Compound 21] | – | – | – | – | 600 | 650 | 673 | 0.20 | –
15 | CN(C)c1ccc2c(c1)[Si](C)(C)C1=CC(=[N+](C)C)C=CC1=C2c1ccc(C(F)(F)F)cc1 [Compound 22] | – | – | – | – | 500 | 650 | 673 | 0.16 | –
16 | CN(C)c1ccc2c(c1)[Si](C)(C)C1=CC(=[N+](C)C)C=CC1=C2c1ccccc1Cl [Compound 23] | – | – | – | – | 27000 | 655 | 676 | 0.30 | –
17 | Cc1ccccc1C1=C2C=CC(=[N+](C)C)C=C2[Si](C)(C)c2cc(N)ccc21 [Compound 26] | – | – | – | – | 15000 | 620 | 643 | 0.14 | –
18 | Cc1ccccc1C1=c2cc3c(cc2[Si](C)(C)c2cc4c(cc21)OCCN4C)=[N+](C)CCO3 [Compound 27] | – | – | – | – | 2100 | 695 | 738 | 0.06 | –

— patent US10261090B2, “Glutathione-detecting fluorescent probe” (THE UNIVERSITY OF TOKYO, priority 2014, dated 2019)
